Measured values: patent US11629192B2, “Methods and pharmaceutical compositions for the treatment of diseases mediated by the NRP-1/OBR complex signaling pathway” (INSERM (Institut National de la Sante et de la Recherche …, priority 2014, dated 2023)
Entries after “also recorded” stand apart in the source; their conditions may differ. Each block holds one molecule with its values, some of them ahead of it.

Legend:
P-NRP-1 = assay: NRP-1 (P-NRP-1) and OBR phosphorylation in MDA-MB-231, immunostaining / coimmunoprecipitation; format: cell-based, human; details: for NRP-1 and OBR phosphorylation: inhibition of CK2 by chemical compounds
Text: Beside the modulation of the NRP-1/OBR complex formation by Leptin and OBR phosphorylation, we postulated a possible phosphorylation of NRP-1 that can regulate the translocation of the complex to the nucleus. Two putative phosphorylation sites of NRP-1 have been reported with no more investigation. The first one at the extracellular B domain as reported by Shintani et al in 2009 with no antibody available and the second one at the Threonine 916 located in the cytoplasmic domain as it was reported by Kyle et al in 2011. Since a specific antibody against P-NRP-1 at the T916 was available, we investigated by coimmunoprecipitation the detection of P-NRP-1 in MDA-MB-231 after serum starvation and stimulation by Leptin (10 nM). […] To confirm this phosphorylation state, we investigated the possible implication of a Serine/threonine Kinase CK2 using one of its first chemical inhibitor (DRB). In serum starved condition, P-NRP-1 was detected as polarized spot in the cytoplasm and the nucleus of MDA-MB-231. […] The inhibition was specific since, in stimulated condition combined with DMSO at the same dilution of DRB, we were able to observe a diffuse nuclear P-NRP-1 staining.

NRP-1/OBR complex [1] = assay: NRP-1/OBR complex detection by Duolink Proximity Ligation Assay in MDA-MB-231 cells; format: cell-based, human; details: for formation and nuclear translocation of the NRP-1/OBR complex: MDA-MB-231 stimulated with Leptin (10 nM), CK2 inhibitor treatment
Text: FIG. 2A-E. NRP-1/OBR complex is dependent of the activity of Protein-kinase CK2: NRP-1 and OBR are both a substrate of the holoenzyme CK2: In vitro phosphorylation of the recombinant full length NRP-1 (A) and the length OBR (B) indicate that the CK2β subunit is indispensable for the CK2 activity. C. Detection of the NRP-1 and CK2β subunit interaction: By using the PLA technology, the in vitro data showing the implication of CK2β subunit in the phosphorylation of NRP-1 by CK2 are in part confirmed in MDA-MB231 cells by the detection of CK2β interaction with NRP-1 as indicated by the duolink (white dot). […] E. inhibition of the NRP-1/OBR by the simultaneous CK2α and CK2α′ expression silencing using siRNA that confirms the CK2 implication In the NRP-1/OBR complex formation and nuclear localization.
To confirm a direct association of NRP-1 and Leptin in breast cancer cell migration, we investigated the NRP-1 and OBR interaction by using proximity ligation assay technology (Duolink) in MDA-MB-231 and in T47D-NRP-1. Since OBR is a member of the class I cytokine receptor family, we asked the question if the formation of the complex NRP-1/OBR can or not be modulated by Leptin. This question was investigated endogenously in MDA-MB-231 or by transient transfection of T47D either by NRP-1 or by NRP-1/OBR or OBR alone. After 24 h of transfection, cells were serum starved for 16 h then stimulated with Leptin (10 nM). After 3 h, the stimulation was stopped by removing the medium, cells was first washed then fixed and NRP-1/OBR complex formation was analyzed by Duolink in situ Proximity Ligation Assay (PLA) and by confocal microscopy detection. Co-localization was analyzed using JACoP (ImageJ; National Institutes of Health, Bethesda, Md.) software. Co-localization between molecules was indicated by a positive Pearson coefficient (r). First, the expression of NRP-1 in transfected T47D was confirmed by RT-PCR. NRP-1 forms a complex with endogenous OBR as it is shown by the Duolink detection as red dot in cells transfected with pcDNA3-NRP-1. The Duolink signal increased in the T47D co-transfected with NRP-1 and OBR. The Duolink signals in T47D transfected with either the empty vector pcDNA3 or with the OBR expressing vector were similar. The same results are observed in MDA-MB-231. […] By using subcellular protein fractionation kit, NRP-1 and OBR localization in cytoplasmic (C), membrane (M), in the total nuclear extract (N) or in soluble nuclear (SN) and chromatin bound fractions (CB) was analyzed by western blotting either in total lysate or after coimmunoprecipitation. The purity of fraction was assessed by the detection of specific proteins of each fraction such as Hsp90 for the C fraction, SP1 and HDAC2 for the SN and CB fractions and specifically the Calreticulin for endoplasmic reticulum (ER) in order to detect any contamination by the ER membrane fraction in the nuclear fractions. As suspected, OBR was coimmunoprecipitated with NRP-1 in the cytoplasmic (C) and in the nuclear fraction (N) of MDA-MB-231 but not in T47D. As well as Phosphorylated OBR (P-OBR), NRP-1 was detected in cytoplasmic fraction and in nuclear fractions SN and CB of 16 h serum starved MDA-MB-231 and stimulated with 10 nM of Leptin during 3 h at 37° C. The P-OBR and NRP-1 coimmunoprecipitated in the nuclear fractions, increasing with Leptin stimulation as observed by confocal microscopy.
As attempted, NRP-1/OBR complex was detected by confocal microscopy after by Duolink in situ Proximity Ligation Assay (PLA) in MDA-MB-231 stimulated with Leptin (10 nM). This detection was also observed in MDA-MB-231-shGFP but very less in MDA-MB-231-shNRP-1 confirming NRP-1 association with OBR.

NRP-1/OBR complex [2] = assay: NRP-1/OBR complex by PLA in skin fibroblast of healthy donor and anorexic patient; format: cell-based, human; details: for NRP-1/OBR complex formation: skin fibroblasts of healthy donor and anorexic patient, treated during 4 hours
Description: FIG. 3A-B. NRP1/OBR complex formation inhibited by two alosteric inhibitors of Protein-kinase CK2 in skin fibroblast of healthy donor (A) and anorexic patient (B). The NRP-1/OBR complex (Red dot) is detected by de Proximity Ligation assay technology (PLA or Ouolink). Cells were grown in DMEM plus 20% of fetal bovine serum+Sodium pyruvate+LGiutamate and penicillin and streptomycin. Cells were treated or not with D3.1 or M4 CK2 inhibitor during 4 hours. Cells were washed with PBS1X and fixed with iced acetone and rehydrated with PBS before blockage and staining with a Goat ant-Human leptin and Rabbit anti-Neuropilin-1 and Mouse anti-Leptin receptor OBR. Leptin was detected using a donkey and Goat Alexa 488 (Green) and NRP-1 and OBR with anti-Rabbit-PLA minus and antimouse-PLA plus as described in the link indicated above. The NRP-1/OBR complex is inhibited by D3.1 and M4 treatment.

[3] = tested on: OBR and STAT3 phosphorylation; assay: OBR and STAT3 phosphorylation in cytoplasmic and nuclear fractions; format: cell-based
Text: Since both NRP-1/OBR complex formation and NRP-1 phosphorylation were abolished by CK2 inhibition, we supposed that OBR signaling pathway could be also affected by CK2 inhibition.

MDA-MB-231 cells = assay: MDA-MB-231 cell migration / transmigration through insert; format: cell-based, human; details: 10 μg/ml of Bevacizumab
Text: (§1) FIG. 5. NRP-1, OBR and leptin interactions confirmation using a Bio-Layer Interferometry (BLI) technology (fortebio.com/bli-technology.html): A-Leptin (OB) interaction to OBR is used as a positive control. Human neuropilin-1 (hNRP-1) interact with human OBR with a high affinity and specifically with human leptin (hOB) but not with murine leptin (mOB). VEGF165 binding to hNRP-1 is used as a positive control. B-Leptin and Avastin association increases MDA-MB231 cells transmigration through […] pore Insert. Avastin treatment may prevent a negative feedback control by VEGF of the pro-angiogenic signaling pathway of Leptin. VEGF binds to OBR which confirms our hypothesis that should be more investigated.
First MBA-MB-231 and T47D breast cancer cells line were selected for their high and undetectable NRP-1 expression respectively and the expression of Leptin receptor (OBR). In order to investigate NRP-1 and Leptin association in breast cancer cell line migration, we proceeded to NRP-1 expression silencing in MDA-MB-231 using either siRNA or shRNA approaches or NRP-1 overexpression in T47D. […] In contrast Leptin induced MDA-MB-231 migration that was decreased in siNRP-1 conditions. The in vitro data were confirmed in vivo by MDA-MB-231 and T47D xenografts in Nude mice. Modulation of NRP-1 expression either by shRNA silencing in MDA-MB-231 or by overexpression in T47D induced an increase of proliferation and a decrease of lymph node infiltration by MDA-MB-231-shNRP-1 and a decrease of proliferation and an increase of lymph node infiltration by T47D-NRP-1-RFP in mice treated with Leptin.
Leptin induced in vitro MDA-MB-231 migration that was decreased by NRP-1 repression using siRNA. Lel Xu et al have reported a direct evidence of NRP-1 up-regulation in tumors treated by anti-VEGF (Bevacizumab). […] This observation can be a first explanation of breast cancer therapy failure (increase of Progression survival while decreasing overall survival) by Bevacizumad and that was revoked by the FDA (Food and Drugs Administration, US).

[4] = molecular target: Human neuropilin-1 (hNRP-1) (Homo sapiens, UniProt O14786); assay: Bio-Layer Interferometry (BLI) interaction with hNRP-1; format: binding
Text: as §1

Molecule: O=C(O)c1ccc2c(c1)nc(Nc1cccc(Cl)c1)c1ccncc12 [CX4945]
- NRP-1 and OBR phosphorylation (P-NRP-1): prevented
- NRP-1/OBR complex detection by PLA and its nuclear localization (NRP-1/OBR complex [1]; MDA-MB231, CX4945 (504) during 4 h, leptin stimulation (10 nM)): decrease in NRP-1/OBR complex detection by PLA (red dot) and its nuclear localization
- formation and nuclear translocation of the NRP-1/OBR complex (NRP-1/OBR complex [1]): prevented; also recorded: the same results obtained with TBB and DRB inhibitors

Molecule: O=C(O)c1cccc(Nc2nc(-c3cccc([N+](=O)[O-])c3)cs2)c1 [D3.1]
- NRP-1/OBR complex formation (NRP-1/OBR complex [2]): inhibited
- efficiency of NRP-1/OBR complex inhibition, D3.1 compared with M4 (NRP-1/OBR complex [2]; skin fibroblasts, 4 hours): seems more efficient

Molecule: OC[C@H]1O[C@@H](n2cnc3cc(Cl)c(Cl)cc32)[C@H](O)[C@@H]1O [DRB, 5,6-dichloro-1-P-D-ribofuranosylbenzimidazole]
- P-NRP-1 staining (diffuse nuclear staining and polarized spot) (P-NRP-1; Leptin-stimulated (10 nM) MDA-MB-231, DRB treatment (5004)): inhibition of the diffuse nuclear P-NRP-1 staining but also to the decrease of P-NRP-1 polarized spot
- NRP-1 and OBR phosphorylation (P-NRP-1): prevented
- formation and nuclear translocation of the NRP-1/OBR complex (NRP-1/OBR complex [1]): prevented
- formation and nuclear translocation of the NRP-1/OBR complex (NRP-1/OBR complex [1]; listed as DBB): decrease of NRP-1/OBR complex formation

Molecule: O=[N+]([O-])c1ccc2c(/N=N/c3c(O)ccc4ccccc34)c(O)cc(S(=O)(=O)O)c2c1 [M4, reference compound]
- NRP-1/OBR complex formation (NRP-1/OBR complex [2]): inhibited

Molecule: Brc1c(Br)c(Br)c2[nH]nnc2c1Br [TBB, 4,5,6,7-tetrabromobenzotriazole]
- NRP-1 and OBR phosphorylation (P-NRP-1): prevented
- formation and nuclear translocation of the NRP-1/OBR complex (NRP-1/OBR complex [1]): prevented; also recorded: decrease of NRP-1/OBR complex formation
- Leptin induced OBR and STAT3 phosphorylation increase, effect of inhibitor [3]: inhibited by TBB treatment in a dose dependent manner

Molecule: CCC(=C/[C@H](C)C/C=C/C(C)=C/[C@@H](C)C(=O)[C@@H](C)[C@H](O)[C@@H](C)C/C(C)=C/C(=O)O)/C=C/[C@@H]1OC(=O)C=C[C@@H]1C [leptomycin B]
- NRP-1/OBR complex detection by Duolink in the nucleus (NRP-1/OBR complex [1]; MDA-MB-231 co-treated with Leptin and leptomycin B vs Leptin alone): increased

Molecule: Bevacizumab: anti-VEGF antibody (rhuMab VEGF, Avastin) [reference compound]
- MDA-MB-231 migration (MDA-MB-231 cells): induced

- interaction with hNRP-1 [4]: not
B1: mOB: murine leptin (protein, UniProt P41160 22-167, looked up)
Leptin: VPIQKVQDDTKTLIKTIVTRINDISHTQSVSAKQRVTGLDFIPGLHPILSLSKMDQTLAVYQQVLTSLPSQNVLQIANDLENLRDLLHLLAFSKSCSLPQTSGLQKPESLDGVLEASLYSTEVVALSRLQGSLQDILQQLDVSPEC
